Test: solubility determination by Chasing Equilibrium pH-metric titration
Assay type: physicochemical
Description: In the Dissolution stage, the test solution is titrated with base titrant. In the Seeking Precipitation and Additional Precipitation stages, the test solution is titrated with acid titrant.
After the final data point of the Additional Precipitation stage has been collected, the method moves on to the Chasing Equilibrium stage. Chasing Equilibrium for an acidic sample is based on the following principles:
The first points are collected while adding base titrant to a supersaturated test solution. The addition of titrant is controlled by a computer program. The slope decreases with each aliquot of base that is added. […] Another aliquot of base is added to confirm that the slope is negative. If the slope remains negative, another data point is taken after adding no titrant. […] By successively adding aliquots of base and acid, the slope can be forced to change direction. When the slope has changed direction several (e.g. five) times the Chasing Equilibrium stage of the procedure is deemed to be complete.
The concentration of unionised solute in solution is calculated for each point in FIG. 7, and plotted against slope (pH/min) as shown in FIG. 8. The points are then connected by a line in the same order that they appeared in FIG. 7. The points corresponding to where the line crosses the zero value of the slope (pH/min) axis are determined by interpolation. The concentration equivalent to these zero slope, crossing points is determined. The solubility is then obtainable as the mean concentration calculated from the several zero slope, crossing points.
For each point located on either side of a zero slope crossing, the amount of neutral sample in solution could be calculated in the following steps:
1. […]
4. The concentration of free positive ions (e.g. K^+) is determined from the amount of base titrant (e.g. KOH) plus any positive ions in the test compound if it was a salt: [K^+]=(vbcb+mszs+/wf)/vt • wherein: cb is the concentration of base titrant • ms is the sample weight of test compound • zs+ is the charge of any positive salt counter-ions • wf is the formula weight of the test compound. […]

- solubility thermodynamic (0.15 M KCl solution titrated with acid and base, saline or isotonic, thermodynamic from solid, straight line interpolation of points A and B to zero pH slope, 0.15M KCl solution, sample introduced as sodium salt, read-out: equilibrium solubility (concentration of unionised compound at zero pH slope)): ~0.732 µg/mL
- dissolved neutral test sample (point A, one side of zero-slope crossing, pH=5.64453, pH slope=2.87 E-05): 759 ng/mL
- dissolved neutral test sample (point B, other side of zero-slope crossing, pH=5.70437, pH slope=-3.5 E-06): 728 ng/mL
SMILES: O=C(O)Cc1ccccc1Nc1c(Cl)cccc1Cl [diclofenac]
